How the values were obtained:
HCC827 [1] = experiment: Induction of cell cycle arrest in human HCC827 cells assessed as accumulation of cells at G1 phase at 0.1 uM incubated for 48 hrs by PI staining based flow cytometry (reference value: 65.2%); format: functional
NCI-H1975 [2] = experiment: Induction of apoptosis in human NCI-H1975 cells assessed as early apoptotic cells at 0.1 uM incubated for 48 hrs by AnnexinV-FITC/PI staining based flow cytometry (reference value: 0.61%); format: functional
A549 [3] = experiment: Induction of cell cycle arrest in human A549 cells assessed as accumulation of cells at G1 phase at 1 uM incubated for 48 hrs by PI staining based flow cytometry (reference value: 52.4%); format: toxicity; details: a549, 48 h
HCC827 [4] = experiment: Induction of cell cycle arrest in human HCC827 cells assessed as accumulation of cells at G2 phase at 10 uM incubated for 48 hrs by PI staining based flow cytometry (reference value: 25.9%); format: functional
NCI-H1975 [5] = experiment: Induction of cell cycle arrest in human NCI-H1975 cells assessed as accumulation of cells at G1 phase at 0.1 uM incubated for 48 hrs by PI staining based flow cytometry (reference value: 50.1%); format: functional
NCI-H1975 [6] = experiment: Induction of apoptosis in human NCI-H1975 cells assessed as late apoptotic cells at 0.1 uM incubated for 48 hrs by AnnexinV-FITC/PI staining based flow cytometry (reference value: 0.79%); format: functional
NCI-H1975 [7] = experiment: Induction of cell cycle arrest in human NCI-H1975 cells assessed as accumulation of cells at S phase at 10 uM incubated for 48 hrs by PI staining based flow cytometry (reference value: 29.8%); format: functional
HCC827 [8] = experiment: Induction of apoptosis in human HCC827 cells assessed as early apoptotic cells at 1 uM incubated for 48 hrs by AnnexinV-FITC/PI staining based flow cytometry (reference value: 0.24%); format: functional
NCI-H1975 [9] = experiment: Induction of cell cycle arrest in human NCI-H1975 cells assessed as accumulation of cells at G1 phase at 1 uM incubated for 48 hrs by PI staining based flow cytometry (reference value: 50.1%); format: functional
A-431 [10] = experiment: Induction of apoptosis in human A-431 cells assessed as late apoptotic cells at 10 uM incubated for 48 hrs by AnnexinV-FITC/PI staining based flow cytometry (reference value: 1.86%); format: toxicity, cell-based; details: a-431, 48 h
A-431 [11] = experiment: Induction of cell cycle arrest in human A-431 cells assessed as accumulation of cells at S phase at 1 uM incubated for 48 hrs by PI staining based flow cytometry (reference value: 30.5%); format: toxicity; details: a-431, 48 h
NCI-H1975 [12] = experiment: Induction of cell cycle arrest in human NCI-H1975 cells assessed as accumulation of cells at S phase at 1 uM incubated for 48 hrs by PI staining based flow cytometry (reference value: 29.8%); format: functional
HCC827 [13] = experiment: Induction of cell cycle arrest in human HCC827 cells assessed as accumulation of cells at S phase at 10 uM incubated for 48 hrs by PI staining based flow cytometry (reference value: 15.2%); format: functional
A549 [14] = experiment: Induction of apoptosis in human A549 cells assessed as early apoptotic cells at 10 uM incubated for 48 hrs by AnnexinV-FITC/PI staining based flow cytometry (reference value: 3.89%); format: toxicity, cell-based; details: a549, 48 h
HCC827 [15] = experiment: Induction of apoptosis in human HCC827 cells assessed as late apoptotic cells at 1 uM incubated for 48 hrs by AnnexinV-FITC/PI staining based flow cytometry (reference value: 1.75%); format: functional
A549 [16] = experiment: Induction of apoptosis in human A549 cells assessed as late apoptotic cells at 0.1 uM incubated for 48 hrs by AnnexinV-FITC/PI staining based flow cytometry (reference value: 0.51%); format: toxicity, cell-based; details: a549, 48 h
NCI-H1975 [17] = experiment: Induction of cell cycle arrest in human NCI-H1975 cells assessed as accumulation of cells at G2 phase at 0.1 uM incubated for 48 hrs by PI staining based flow cytometry (reference value: 19.3%); format: functional
NCI-H1975 [18] = experiment: Induction of apoptosis in human NCI-H1975 cells assessed as early apoptotic cells at 1 uM incubated for 48 hrs by AnnexinV-FITC/PI staining based flow cytometry (reference value: 0.61%); format: functional
HCC827 [19] = experiment: Induction of apoptosis in human HCC827 cells assessed as late apoptotic cells at 10 uM incubated for 48 hrs by AnnexinV-FITC/PI staining based flow cytometry (reference value: 1.75%); format: functional
A-431 [20] = experiment: Induction of apoptosis in human A-431 cells assessed as late apoptotic cells at 0.1 uM incubated for 48 hrs by AnnexinV-FITC/PI staining based flow cytometry (reference value: 1.86%); format: toxicity, cell-based; details: a-431, 48 h
A549 [21] = experiment: Induction of apoptosis in human A549 cells assessed as late apoptotic cells at 10 uM incubated for 48 hrs by AnnexinV-FITC/PI staining based flow cytometry (reference value: 0.51%); format: toxicity, cell-based; details: a549, 48 h
HCC827 [22] = experiment: Induction of apoptosis in human HCC827 cells assessed as early apoptotic cells at 10 uM incubated for 48 hrs by AnnexinV-FITC/PI staining based flow cytometry (reference value: 0.24%); format: functional
A-431 [23] = experiment: Induction of cell cycle arrest in human A-431 cells assessed as accumulation of cells at S phase at 0.1 uM incubated for 48 hrs by PI staining based flow cytometry (reference value: 30.5%); format: toxicity; details: a-431, 48 h
NCI-H1975 [24] = experiment: Induction of apoptosis in human NCI-H1975 cells assessed as early apoptotic cells at 10 uM incubated for 48 hrs by AnnexinV-FITC/PI staining based flow cytometry (reference value: 0.61%); format: functional
A-431 [25] = experiment: Induction of apoptosis in human A-431 cells assessed as early apoptotic cells at 10 uM incubated for 48 hrs by AnnexinV-FITC/PI staining based flow cytometry (reference value: 1.37%); format: toxicity, cell-based; details: a-431, 48 h
HCC827 [26] = experiment: Induction of cell cycle arrest in human HCC827 cells assessed as accumulation of cells at S phase at 0.1 uM incubated for 48 hrs by PI staining based flow cytometry (reference value: 15.2%); format: functional
NCI-H1975 [27] = experiment: Induction of apoptosis in human NCI-H1975 cells assessed as late apoptotic cells at 10 uM incubated for 48 hrs by AnnexinV-FITC/PI staining based flow cytometry (reference value: 0.79%); format: functional
HCC827 [28] = experiment: Induction of apoptosis in human HCC827 cells assessed as early apoptotic cells at 0.1 uM incubated for 48 hrs by AnnexinV-FITC/PI staining based flow cytometry (reference value: 0.24%); format: functional
A549 [29] = experiment: Induction of apoptosis in human A549 cells assessed as early apoptotic cells at 1 uM incubated for 48 hrs by AnnexinV-FITC/PI staining based flow cytometry (reference value: 3.89%); format: toxicity, cell-based; details: a549, 48 h
A549 [30] = experiment: Induction of cell cycle arrest in human A549 cells assessed as accumulation of cells at G1 phase at 10 uM incubated for 48 hrs by PI staining based flow cytometry (reference value: 52.4%); format: toxicity; details: a549, 48 h
HCC827 [31] = experiment: Induction of cell cycle arrest in human HCC827 cells assessed as accumulation of cells at G2 phase at 0.1 uM incubated for 48 hrs by PI staining based flow cytometry (reference value: 25.9%); format: functional
[32] = molecular target: Epidermal growth factor receptor (Homo sapiens, UniProt P00533, T790M); experiment: Inhibition of human partial length EGFR (R669 to G1022 residues) T790M mutant expressed in mammalian expression system by KINOMEscan analysis
Chain of Epidermal growth factor receptor (P00533 25-1210 T790M limits assumed): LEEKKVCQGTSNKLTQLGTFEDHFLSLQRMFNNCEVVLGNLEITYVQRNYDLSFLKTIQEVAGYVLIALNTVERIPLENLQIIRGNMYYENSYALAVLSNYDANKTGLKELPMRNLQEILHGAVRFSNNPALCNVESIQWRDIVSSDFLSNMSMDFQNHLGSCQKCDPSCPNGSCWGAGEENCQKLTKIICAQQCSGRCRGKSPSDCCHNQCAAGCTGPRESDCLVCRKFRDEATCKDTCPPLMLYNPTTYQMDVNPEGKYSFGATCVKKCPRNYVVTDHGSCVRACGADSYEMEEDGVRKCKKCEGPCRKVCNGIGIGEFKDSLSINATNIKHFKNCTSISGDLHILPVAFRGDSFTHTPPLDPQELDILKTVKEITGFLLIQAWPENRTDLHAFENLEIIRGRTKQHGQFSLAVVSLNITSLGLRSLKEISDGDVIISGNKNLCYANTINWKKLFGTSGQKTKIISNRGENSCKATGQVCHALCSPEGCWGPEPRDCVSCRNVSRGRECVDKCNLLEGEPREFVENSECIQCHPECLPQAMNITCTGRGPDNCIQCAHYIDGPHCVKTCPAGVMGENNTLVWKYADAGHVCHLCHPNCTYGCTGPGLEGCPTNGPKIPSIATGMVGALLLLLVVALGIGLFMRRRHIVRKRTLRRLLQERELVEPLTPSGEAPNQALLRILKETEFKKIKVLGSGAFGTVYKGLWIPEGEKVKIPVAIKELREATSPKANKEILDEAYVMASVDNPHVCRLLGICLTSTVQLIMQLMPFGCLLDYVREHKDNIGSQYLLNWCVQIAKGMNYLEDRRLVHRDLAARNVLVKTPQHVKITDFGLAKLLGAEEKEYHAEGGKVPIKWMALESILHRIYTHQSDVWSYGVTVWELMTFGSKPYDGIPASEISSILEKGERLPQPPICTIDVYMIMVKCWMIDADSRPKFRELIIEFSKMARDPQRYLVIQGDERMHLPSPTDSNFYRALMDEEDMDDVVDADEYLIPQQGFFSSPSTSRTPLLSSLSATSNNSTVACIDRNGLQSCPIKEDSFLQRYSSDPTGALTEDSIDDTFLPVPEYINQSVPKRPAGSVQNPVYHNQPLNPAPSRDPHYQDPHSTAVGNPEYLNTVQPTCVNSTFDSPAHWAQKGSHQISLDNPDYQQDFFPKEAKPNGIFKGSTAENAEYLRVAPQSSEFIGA

C=CC(=O)Nc1cc(Nc2nccc(-c3cn(C)c4ccccc34)n2)c(OC)cc1N(C)CCN(C)C [OSIMERTINIB]
Activity (HCC827 [1]): 72.9%
Activity (NCI-H1975 [2]): 7.15%
Activity (A549 [3]): 57.7%
Activity (HCC827 [4]): 11.6%
Activity (NCI-H1975 [5]): 64.3%
Activity (NCI-H1975 [6]): 9.27%
Activity (NCI-H1975 [7]): 11.5%
Activity (HCC827 [8]): 17.2%
Activity (NCI-H1975 [9]): 71.5%
Activity (A-431 [10]): 19.4%
Activity (A-431 [11]): 28.1%
Activity (NCI-H1975 [12]): 18.9%
Activity (HCC827 [13]): 8.52%
Activity (A549 [14]): 18.6%
Activity (HCC827 [15]): 18%
Activity (A549 [16]): 0.88%
Activity (NCI-H1975 [17]): 20.2%
Activity (NCI-H1975 [18]): 17.5%
Activity (HCC827 [19]): 22.4%
Activity (A-431 [20]): 4.04%
Activity (A549 [21]): 0.47%
Activity (HCC827 [22]): 20.4%
Activity (A-431 [23]): 30.6%
Activity (NCI-H1975 [24]): 42%
Activity (A-431 [25]): 28.1%
Activity (HCC827 [26]): 11.8%
Activity (NCI-H1975 [27]): 46.3%
Activity (HCC827 [28]): 15.2%
Activity (A549 [29]): 8%
Activity (A549 [30]): 74.6%
Activity (HCC827 [31]): 13.6%

C=CC(=O)Nc1cccc(Nc2nc(Nc3ccc(N4CCN(C)CC4)cc3)nc3ccc(F)cc23)c1
Activity (HCC827 [1]): 74%
Activity (NCI-H1975 [2]): 7.05%
IC50 [32]: 6.7 nM
Activity (A549 [3]): 61.2%
Activity (HCC827 [4]): 11%
Activity (NCI-H1975 [5]): 67.1%
Activity (NCI-H1975 [6]): 8.57%
Activity (NCI-H1975 [7]): 11.3%
Activity (HCC827 [8]): 22.7%
Activity (NCI-H1975 [9]): 72.2%
Activity (A-431 [10]): 3.43%
Activity (A-431 [11]): 27.6%
Activity (NCI-H1975 [12]): 16.4%
Activity (HCC827 [13]): 7.33%
Activity (A549 [14]): 14.6%
Activity (HCC827 [15]): 11.8%
Activity (A549 [16]): 0.8%
Activity (NCI-H1975 [17]): 15.5%
Activity (NCI-H1975 [18]): 23%
Activity (HCC827 [19]): 12.3%
Activity (A-431 [20]): 2.57%
Activity (A549 [21]): 0.2%
Activity (HCC827 [22]): 28.4%
Activity (A-431 [23]): 30.1%
Activity (NCI-H1975 [24]): 83.2%
Activity (A-431 [25]): 14.5%
Activity (HCC827 [26]): 12%
Activity (NCI-H1975 [27]): 4.3%
Activity (HCC827 [28]): 10.1%
Activity (A549 [29]): 6.44%
Activity (A549 [30]): 63.8%
Activity (HCC827 [31]): 13.5%
